# Reference: patent publication US20080214530A1, “Photo-Activated Disinfection” (priority 2003, published 2008)
# Tested on: caries
# Assay: optimum photosensitiser concentration for photo-activated disinfection of caries
# Settings: at 635 nm
# Method: The concentration of tolonium chloride will depend on the specific application and chosen wavelength. We have determined an optimum at 635 nm for caries of 12 μg/ml. Longer wavelengths and other applications especially periodontal disease where in vivo dilution may occur are likely to need greater concentrations, whereas shorter wavelengths may require reduced concentrations. Preferably, therefore, the concentration should fall within an overall range between 1 and 200 μg/ml. […] The reduction in efficacy as the concentration increases beyond the optimum is thought to be due to the accompanying increasing absorption limiting the light transmission through the treatment zone.
smiles,measurement,value
Cc1cc2nc3ccc(N(C)C)cc3[s+]c2cc1N [tolonium chloride],optimum concentration,12 µg/mL
